Measurements published in US9758485B2, “Compounds for controlling arthropods” (priority 2013, dated 2017).
Read-outs that look alike come from different tables or passages of the source.

Experiments:
Phaedon cochleariae = Phaedon cochleariae - spray test; assay type: in vivo; settings: application rate 100 g/ha, larvae on Chinese cabbage leaf discs, after 7 days
Procedure: Phaedon cochleariae—Spray Test
Solvent: 78.0 parts by weight of acetone and 1.5 parts by weight of dimethylformamide
Emulsifier: alkylaryl polyglycol ether
To produce an appropriate active ingredient formulation, 1 part by weight of active ingredient is dissolved using the specified parts by weight of solvent and made up with water containing an emulsifier concentration of 1000 ppm until the desired concentration is attained. To produce further test concentrations, the preparation is diluted with emulsifier-containing water.
Discs of Chinese cabbage leaves (Brassica pekinensis) are sprayed with an active ingredient formulation of the desired concentration and, after drying, populated with larvae of the mustard beetle (Phaedon cochleariae).
After 7 days, efficacy in % is determined. 100% means that all the beetle larvae have been killed; 0% means that no beetle larvae have been killed.

[1] = logP determination by HPLC on a reversed-phase column (C18), EEC Directive 79/831 Annex V.A8; assay type: physicochemical; settings: for log P: HPLC-MS, reversed-phase column (C18)
[2] = system: Boophilus microplus Parkhurst strain, SP-resistant; experiment: Boophilus microplus - dip test; assay type: in vivo; settings: application rate 100 ppm; dip of engorged adult female ticks; laying of fertile eggs, after 7 days
In short: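 Efficacy reflects suppression of fertile egg laying: 0% means all eggs fertile, 100% none, read at 7 days, doubtful eggs kept ~42 days for larval hatch. Treatment was a complete dip of 8–10 engorged adult female ticks (SP-resistant Parkhurst strain) in a water dilution of a DMSO stock.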

Lucilia cuprina = Lucilia cuprina test; assay type: in vivo; settings: application rate 100 ppm; L1 larvae in minced horsemeat; kill after 2 days
In short: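 Mortality (%) of first-instar blowfly larvae, about 20 per vessel, recorded 2 days after exposure to compound-treated minced horsemeat. Compound dissolved in dimethyl sulphoxide, then water-diluted to the desired concentration.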

Amblyomma hebraeum = Amblyomma hebraeum test (tick nymphs, immersion); assay type: in vivo; settings: application rate 100 ppm; tick nymphs immersed for one minute; kill after 42 days
Procedure: Solvent: dimethyl sulphoxide
To produce an appropriate active ingredient formulation, 10 mg of active ingredient are mixed with 0.5 ml of dimethyl sulphoxide, and the concentrate is diluted with water to the desired concentration.
Tick nymphs (Amblyomma hebraeum) are placed into perforated plastic beakers and immersed in the desired concentration for one minute. The ticks are transferred on filter paper into a Petri dish and stored in a climate-controlled cabinet.
After 42 days, the kill in % is determined. 100% means that all of the ticks have been killed; 0% means that none of the ticks have been killed.

Boophilus microplus = Boophilus microplus - injection test; assay type: in vivo; settings: application rate 20 μg/animal; injected into engorged adult female ticks; laying of fertile eggs, after 7 days
In short: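 Scoring was by fertile egg laying 7 days after injection, holding doubtful eggs until larvae hatched at about 42 days; 100% = no fertile eggs, 0% = all eggs fertile. Groups of 5 engorged adult female cattle ticks were each injected abdominally with 1 μl of compound in DMSO.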

Ctenocephalides felis [3] = experiment: Ctenocephalides felis - oral test; assay type: in vivo; settings: application rate 100 ppm in citrated cattle blood; adult fleas; kill after 2 days
In short: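 Steps: active ingredient dissolved in dimethyl sulphoxide; blood dilution prepared; fleas (about 20, unfed adults) held in gauze-closed chamber beneath a cylinder of treated blood; feeding via parafilm; kill percentage determined after 2 days.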

Ctenocephalides felis [4] = experiment: Ctenocephalides felis - in vitro contact tests with adult cat fleas; assay type: in vivo; settings: application rate 5 μg/cm^2 (=500 g/ha), after 48 h (dead or moribund)
In short: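 Efficacy, as share of dead or moribund adult Ctenocephalides felis, read 48 h after placing 5-10 fleas in tubes coated by acetone solution (5 μg/cm^2 at 900 ppm). Incubation horizontal at room temperature, ambient humidity; immobile or uncoordinated fleas scored.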

Musca domestica = Musca domestica test; assay type: in vivo; settings: application rate 100 ppm; adult houseflies; kill after 2 days
In short: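 First, 10 mg compound was taken up in 0.5 ml DMSO and then brought with water to the required concentration. This was applied with sugar solution to a sponge in vessels holding 10 adult flies; kill was assessed after 2 days.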

Rhipicephalus sanguineus = Rhipicephalus sanguineus - in vitro contact tests with adult brown dog ticks; assay type: in vivo
In short: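 Test compound was dissolved in acetone p.a. (9 mg in 1 ml, then diluted), and 250 μl were spread evenly over the inner surface of 25 ml test tubes on an orbital shaker at 30 rpm for 2 h. Once the solvent evaporated, 5-10 adult Rhipicephalus sanguineus ticks were sealed in, kept dark at room temperature, and after 48 h placed on a 45-50° C. hotplate to score dead or moribund ticks.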

[5] = application rate 5 μg/cm^2, after 48 h (dead or moribund)
[6] = application rate 1 μg/cm^2, after 48 h (dead or moribund)

## Cc1cc(C(F)(C(F)(F)F)C(F)(F)F)cc(C)c1-c1ccn(-c2ccc(Cl)c(C(=O)NC3CC3)c2)n1 [I-T2-1, 2-chloro-N-cyclopropyl-5-[3-[2,6-dimethyl-4-[1,2,2,2-tetrafluoro-1-(trifluoromethyl)ethyl]phenyl]pyrazol-1-yl]benzamide]
Phaedon cochleariae; Phaedon cochleariae, foliar, 168 h, read-out: efficacy
  pest or weed control at 100 g/ha: 100%
[1]; reversed-phase HPLC column (C18), HPLC, reversed-phase C18, acetonitrile/water with formic acid, 55° C., read-out: logP
  chromatographic logP: 4.9
[1]; reversed-phase HPLC column (C18), HPLC-MS method a); read-out: logP^a)
  chromatographic logP: 4.9

## O=C(NC1CC1)c1cc(-c2cnn(-c3c(Cl)cc(C(F)(F)F)cc3Cl)c2)cnc1Cl [I-T3-98]
[2]
  efficacy: 100%
Lucilia cuprina
  efficacy: 100%
Amblyomma hebraeum
  efficacy: 100%
Boophilus microplus
  efficacy: 100%
Ctenocephalides felis [3]
  efficacy: 100%
[1]
  log P: 3.1
Ctenocephalides felis [4]
  efficacy: 100%
Musca domestica
  efficacy: 90%
Rhipicephalus sanguineus; [5]
  efficacy: 100%

## Cc1cc(C(F)(C(F)(F)F)C(F)(F)F)cc(C(F)(F)F)c1-n1cc(-c2cnc(Cl)c(C(=O)NC3CC3)c2)cn1 [I-T3-106]
[2]
  efficacy: 100%
Lucilia cuprina
  efficacy: 100%
Amblyomma hebraeum
  efficacy: 100%
Boophilus microplus
  efficacy: 100%
Ctenocephalides felis [3]
  efficacy: 100%
[1]
  log P: 4.0
Ctenocephalides felis [4]
  efficacy: 100%
Musca domestica
  efficacy: 100%
Rhipicephalus sanguineus; [5]
  efficacy: 100%

## Cc1cc(C(F)(C(F)(F)F)C(F)(F)F)cc(C(F)(F)F)c1-n1cc(-c2cnc(Cl)c(C(=O)NC3(C#N)CC3)c2)cn1 [I-T3-108]
[2]
  efficacy: 100%
Lucilia cuprina
  efficacy: 100%
Amblyomma hebraeum
  efficacy: 100%
Boophilus microplus
  efficacy: 100%
Ctenocephalides felis [3]
  efficacy: 100%
[1]
  log P: 4.0
Ctenocephalides felis [4]
  efficacy: 100%
Musca domestica
  efficacy: 100%
Rhipicephalus sanguineus; [6]
  efficacy: 100%

## CCc1cc(C(F)(C(F)(F)F)C(F)(F)F)cc(C)c1-n1cc(-c2cnc(Cl)c(C(=O)NC3CC3)c2)cn1 [I-T3-109]
[2]
  efficacy: 100%
Lucilia cuprina
  efficacy: 100%
Amblyomma hebraeum
  efficacy: 100%
Boophilus microplus
  efficacy: 100%
Ctenocephalides felis [3]
  efficacy: 100%
[1]
  log P: 4.2
Ctenocephalides felis [4]
  efficacy: 100%
Musca domestica
  efficacy: 100%
Rhipicephalus sanguineus; [5]
  efficacy: 100%

## CCc1cc(C(F)(C(F)(F)F)C(F)(F)F)cc(C)c1-n1cc(-c2cnc(Cl)c(C(=O)NC3(C#N)CC3)c2)cn1 [I-T3-110]
[2]
  efficacy: 100%
Lucilia cuprina
  efficacy: 100%
Amblyomma hebraeum
  efficacy: 100%
Boophilus microplus
  efficacy: 100%
Ctenocephalides felis [3]
  efficacy: 100%
[1]
  log P: 4.1
Ctenocephalides felis [4]
  efficacy: 100%
Musca domestica
  efficacy: 100%
Rhipicephalus sanguineus; [5]
  efficacy: 100%

## O=C(NC1CC1)c1cc(-c2cnn(-c3c(Cl)cc(C(F)(C(F)(F)F)C(F)(F)F)cc3C(F)(F)F)c2)cnc1Cl [I-T3-112]
[2]
  efficacy: 100%
Lucilia cuprina
  efficacy: 100%
Amblyomma hebraeum
  efficacy: 100%
Boophilus microplus
  efficacy: 100%
Ctenocephalides felis [3]
  efficacy: 100%
[1]
  log P: 4.0
Ctenocephalides felis [4]
  efficacy: 100%
Musca domestica
  efficacy: 100%
Rhipicephalus sanguineus; [5]
  efficacy: 100%

## N#CC1(NC(=O)c2cc(-c3cnn(-c4c(Cl)cc(C(F)(C(F)(F)F)C(F)(F)F)cc4C(F)(F)F)c3)cnc2Cl)CC1 [I-T3-114]
[2]
  efficacy: 100%
Lucilia cuprina
  efficacy: 100%
Amblyomma hebraeum
  efficacy: 100%
Boophilus microplus
  efficacy: 100%
Ctenocephalides felis [3]
  efficacy: 100%
[1]
  log P: 4.0
Ctenocephalides felis [4]
  efficacy: 100%
Musca domestica
  efficacy: 100%
Rhipicephalus sanguineus; [6]
  efficacy: 100%

## Cc1cc(C(F)(C(F)(F)F)C(F)(F)F)cc(C(F)(F)F)c1-n1cc(-c2cnc(C)c(C(=O)NC3CC3)c2)cn1 [I-T3-117]
[2]
  efficacy: 100%
Lucilia cuprina
  efficacy: 100%
Amblyomma hebraeum
  efficacy: 100%
Boophilus microplus
  efficacy: 100%
Ctenocephalides felis [3]
  efficacy: 100%
[1]
  log P: 3.5
Ctenocephalides felis [4]
  efficacy: 100%
Musca domestica
  efficacy: 100%
Rhipicephalus sanguineus; [5]
  efficacy: 100%

## Cc1cc(C(F)(C(F)(F)F)C(F)(F)F)cc(C(F)(F)F)c1-n1cc(-c2cnc(C)c(C(=O)NC3(C#N)CC3)c2)cn1 [I-T3-119]
[2]
  efficacy: 100%
Lucilia cuprina
  efficacy: 100%
Amblyomma hebraeum
  efficacy: 100%
Boophilus microplus
  efficacy: 100%
Ctenocephalides felis [3]
  efficacy: 100%
[1]
  log P: 3.6
Ctenocephalides felis [4]
  efficacy: 100%
Musca domestica
  efficacy: 100%
Rhipicephalus sanguineus; [5]
  efficacy: 100%

## Cc1cc(C(F)(C(F)(F)F)C(F)(F)F)cc(C(F)(F)F)c1-n1cc(-c2cnc(C)c(C(=O)N(C)C3(C#N)CC3)c2)cn1 [I-T3-123]
[2]
  efficacy: 100%
Lucilia cuprina
  efficacy: 100%
Amblyomma hebraeum
  efficacy: 80%
Boophilus microplus
  efficacy: 100%
Ctenocephalides felis [3]
  efficacy: 100%
[1]
  log P: 3.9
Ctenocephalides felis [4]
  efficacy: 100%
Musca domestica
  efficacy: 100%
Rhipicephalus sanguineus; [6]
  efficacy: 80%

## Cc1ncc(-c2cnn(-c3c(Cl)cc(C(F)(C(F)(F)F)C(F)(F)F)cc3C(F)(F)F)c2)cc1C(=O)NC1(C#N)CC1 [I-T3-125]
[2]
  efficacy: 100%
Lucilia cuprina
  efficacy: 100%
Phaedon cochleariae
  efficacy: 100%
Amblyomma hebraeum
  efficacy: 100%
Boophilus microplus
  efficacy: 100%
Ctenocephalides felis [3]
  efficacy: 100%
[1]
  log P: 3.8
Ctenocephalides felis [4]
  efficacy: 100%
Musca domestica
  efficacy: 100%

## O=C(NC1CC1)c1cc(-c2cnn(-c3c(Br)cc(C(F)(C(F)(F)F)C(F)(F)F)cc3C(F)(F)F)c2)ccc1Cl [I-T3-148]
[2]
  efficacy: 100%
Lucilia cuprina
  efficacy: 100%
Amblyomma hebraeum
  efficacy: 100%
Boophilus microplus
  efficacy: 100%
Ctenocephalides felis [3]
  efficacy: 100%
[1]
  log P: 4.5
Ctenocephalides felis [4]
  efficacy: 100%
Musca domestica
  efficacy: 100%
Rhipicephalus sanguineus; [5]
  efficacy: 100%

## N#CC1(NC(=O)c2cc(-c3cnn(-c4c(Br)cc(C(F)(C(F)(F)F)C(F)(F)F)cc4C(F)(F)F)c3)ccc2Cl)CC1 [I-T3-155]
[2]
  efficacy: 100%
Lucilia cuprina
  efficacy: 100%
Amblyomma hebraeum
  efficacy: 100%
Boophilus microplus
  efficacy: 100%
Ctenocephalides felis [3]
  efficacy: 100%
[1]
  log P: 4.4
Ctenocephalides felis [4]
  efficacy: 100%
Musca domestica
  efficacy: 100%
Rhipicephalus sanguineus; [5]
  efficacy: 100%

## O=C(NC1CC1)c1cc(-c2cnn(-c3c(Cl)cc(C(F)(C(F)(F)F)C(F)(F)F)cc3OC(F)(F)F)c2)ccc1Cl [I-T3-162]
[2]
  efficacy: 100%
Lucilia cuprina
  efficacy: 100%
Amblyomma hebraeum
  efficacy: 100%
Boophilus microplus
  efficacy: 100%
Ctenocephalides felis [3]
  efficacy: 100%
[1]
  log P: 4.6
Ctenocephalides felis [4]
  efficacy: 100%
Musca domestica
  efficacy: 100%
Rhipicephalus sanguineus; [5]
  efficacy: 100%

## N#CC1(NC(=O)c2cc(-c3cnn(-c4c(Cl)cc(C(F)(C(F)(F)F)C(F)(F)F)cc4OC(F)(F)F)c3)ccc2Cl)CC1 [I-T3-163]
[2]
  efficacy: 100%
Lucilia cuprina
  efficacy: 100%
Amblyomma hebraeum
  efficacy: 100%
Boophilus microplus
  efficacy: 100%
Ctenocephalides felis [3]
  efficacy: 100%
[1]
  log P: 4.5
Ctenocephalides felis [4]
  efficacy: 100%
Musca domestica
  efficacy: 100%
Rhipicephalus sanguineus; [5]
  efficacy: 100%

## Cc1cc(C(F)(C(F)(F)F)C(F)(F)F)cc(C)c1-c1cc(-c2ccc(Cl)c(C(=O)NC3(C#N)CC3)c2)on1 [I-T22-2]
[2]
  efficacy: 100%
Lucilia cuprina
  efficacy: 100%
Amblyomma hebraeum
  efficacy: 100%
Boophilus microplus
  efficacy: 100%
Ctenocephalides felis [3]
  efficacy: 100%
[1]; HPLC, reversed-phase C18, acetonitrile/water with formic acid, 55° C.
  logP: 4.6
Ctenocephalides felis [4]
  efficacy: 100%
Musca domestica
  efficacy: 100%
Rhipicephalus sanguineus; [5]
  efficacy: 100%
